In the NIST ThermoML archive (doi:10.1021/je025621h):
Numbers after ± are expanded uncertainties.

Conditions: Liquid

CCO [ethanol]
Conditions | vapor or sublimation pressure [kPa]
312.17 K | 17 ± 0.037
313.43 K | 18.15 ± 0.038
318.15 K | 23.07 ± 0.04
318.24 K | 23.18 ± 0.04
320.87 K | 26.39 ± 0.041
323.15 K | 29.48 ± 0.043
326.13 K | 34 ± 0.044
326.16 K | 34.02 ± 0.044
328.14 K | 37.34 ± 0.046
328.17 K | 37.39 ± 0.046
330.65 K | 41.9 ± 0.048
333.16 K | 46.94 ± 0.05
336.1 K | 53.47 ± 0.053
336.14 K | 53.56 ± 0.053
338.16 K | 58.48 ± 0.056
343.15 K | 72.3 ± 0.061
348.14 K | 88.77 ± 0.068
351.38 K | 101.11 ± 0.069
351.42 K | 101.23 ± 0.069

O [water]
Conditions | vapor or sublimation pressure [kPa]
327.13 K | 15 ± 0.036
328.16 K | 15.75 ± 0.037
330.78 K | 17.85 ± 0.037
333.15 K | 19.94 ± 0.038
335.82 K | 22.53 ± 0.039
338.15 K | 25.02 ± 0.04
340.67 K | 27.98 ± 0.042
343.16 K | 31.21 ± 0.043
346.13 K | 35.42 ± 0.044
348.14 K | 38.55 ± 0.046
353.14 K | 47.36 ± 0.05
358.14 K | 57.79 ± 0.053

C1CCCCC1 [cyclohexane]
Conditions | vapor or sublimation pressure [kPa]
302.92 K | 16.06 ± 0.037
304.19 K | 16.95 ± 0.037
306.91 K | 19.05 ± 0.038
308.27 K | 20.16 ± 0.038
309.9 K | 21.56 ± 0.039
313.16 K | 24.61 ± 0.04
318.19 K | 30.03 ± 0.042
323.14 K | 36.23 ± 0.044
328.16 K | 43.51 ± 0.047
331.9 K | 49.68 ± 0.05
333.16 K | 51.9 ± 0.051
333.17 K | 51.9 ± 0.051
338.16 K | 61.56 ± 0.054
343.16 K | 72.53 ± 0.058
345.42 K | 77.94 ± 0.061
348.05 K | 84.73 ± 0.063
